The source of these data is patent US20250002597A1, “METHOD FOR OPTIMIZING DRUG SELECTION” (priority 2023, published 2025).

The subject of this data set is T-lymphocytes. Description: Lymphocyte toxicity assay (LTA). The data set is classed as cell-based, human. The following applies: for Viability %: post-mastectomy. The source says:
The present invention is particularly effective in determining the efficacy of the drug alone by measuring the lymphocyte toxicity assay and then combining the prescribed drug with various anabolic steroidal compounds.
Exemplifying the present invention is Table 2 below which sets forth a lymphocyte toxicity assay for a post-mastectomy treatment for reducing pain by measuring the efficacy of combining a known drug, Inflectra, with a steroidal compound which is an anti-tumor necrosis alpha inhibitor as the base.

Where [1] appears, read: single therapeutic, patient blood cells, untreated cell control = 100%.

Molecule `C[C@]12CC[C@H]3[C@@H](CCC4=CC(=O)CC[C@@H]43)[C@@H]1CC[C@@H]2O` [Nandrolone] registered a Viability % under setting [1] of 158%.

Turning to `C[C@]12COC(=O)C[C@@H]1CC[C@@H]1[C@@H]2CC[C@@]2(C)[C@H]1CC[C@]2(C)O` [Oxandrolone], the Viability % under setting [1] is given as 117%.

Consider `C[C@]12Cc3c[nH]nc3C[C@@H]1CC[C@@H]1[C@@H]2CC[C@@]2(C)[C@H]1CC[C@]2(C)O` [Stanozolol], for which the “Toxicity to the cells (interpretation in words)” value (patient blood cells exposed to the therapeutics) is given as “The only medication that was toxic to the cell was Stanozolol. However, the combination of Stanozolol”. The same molecule showed a Toxicity under setting [1] of 14%.

The molecule `C[C@]12CC[C@H]3[C@@H](CCC4=CC(=O)CC[C@@]43C)[C@@H]1CC[C@@H]2O` [Testosterone] showed a Viability % under setting [1] of 150%.

Regarding “INFLECTRA: known drug; anti-tumor necrosis alpha inhibitor”, under setting [1], the Viability % is 160%.
